Converted amounts (≈) assume the structure as drawn. Each block holds one compound with its values, some of them ahead of it.
Key:
[1] = Apparent permeability from apical to basolateral side in MDCK cells; format: ADME, cell-based, Canis lupus familiaris; conditions: dog
[2] = Fraction unbound in mouse plasma; format: ADME, cell-free
[3] = Kinetic solubility at pH 7.4 by high throughput assay; format: physicochemical; conditions: buffer, read-out: Kinetic_solubility
[4] = target: Serine/threonine-protein kinase PAK 1 (Homo sapiens, UniProt Q13153); assay: Inhibition of recombinant human GST-tagged PAK1 kinase domain expressed in baculovirus expression system assessed as suppression of phosphorylation of coumarin/fluorescein-labelled FRET peptide substrate at Ser/Thr19 residues preincubated with substrate for 10 mins followed by enzyme addition measured after 60 mins by Z-Lyte assay
[5] = target: Serine/threonine-protein kinase PAK 1/PAK 2/PAK 3 (Homo sapiens, UniProt O75914+Q13177+Q13153); assay: Inhibition of PAK1/2/3 in human EBC1 cells assessed as MEK1 phosphorylation level at Serine298 residue incubated for 2 hrs by HTRF assay; format: cell-based
Hepatocyte = assay: Drug uptake in mouse hepatocytes measured at 30 secs relative to control; format: ADME, cell-based; conditions: 0.5 min
[6] = Cmax in nude mouse at 25 mg/kg, po; format: ADME, organism-based; set-up: dose 25 mg/kg, route oral; conditions: in vivo
[7] = Tmax in nude mouse at 25 mg/kg, po; format: ADME, organism-based; conditions: in vivo
[8] = Volume of distribution at steady state in nude mouse at 2 mg/kg, iv; format: ADME, organism-based; conditions: in vivo, read-out: Vdss
[9] = Plasma clearance in nude mouse at 2 mg/kg, iv; format: ADME, organism-based
Mus musculus = assay: Unbound clearance in nude mouse at 2 mg/kg, iv; format: ADME, organism-based; conditions: in vivo
[10] = Half life in nude mouse at 2 mg/kg, iv; format: ADME, organism-based; conditions: in vivo
[11] = Oral bioavailability in nude mouse at 25 mg/kg; format: ADME, organism-based; conditions: in vivo
MDR1 (human) [12] = assay: Apparent permeability from apical to basolateral side in MDCK cells expressing human MDR1; format: ADME, cell-based, Canis lupus familiaris; conditions: dog
MDR1 (human) [13] = assay: Apparent permeability from basolateral to apical side in MDCK cells expressing human MDR1; format: ADME, cell-based, Canis lupus familiaris; conditions: dog
MDR1 (human) [14] = assay: Efflux ratio of apparent permeability from basolateral to apical side over apical to basolateral side in MDCK cells expressing human MDR1; format: ADME, cell-based, Canis lupus familiaris; conditions: dog
[15] = Lipophilicity, logD of compound at pH 7.4; format: physicochemical; conditions: buffer
[16] = target: Serine/threonine-protein kinase PAK 4 (Homo sapiens, UniProt O96013); assay: Inhibition of human recombinant GST-tagged PAK4 kinase domain (295 to 591 residues) expressed in baculovirus expression system assessed as suppression of phosphorylation of coumarin/fluorescein-labelled FRET peptide substrate at Ser/Thr19 residues preincubated with substrate for 10 mins followed by enzyme addition measured after 60 mins by Z-Lyte assay
Chain of Serine/threonine-protein kinase PAK 4 (O96013 whole entry, the tested form may be a part): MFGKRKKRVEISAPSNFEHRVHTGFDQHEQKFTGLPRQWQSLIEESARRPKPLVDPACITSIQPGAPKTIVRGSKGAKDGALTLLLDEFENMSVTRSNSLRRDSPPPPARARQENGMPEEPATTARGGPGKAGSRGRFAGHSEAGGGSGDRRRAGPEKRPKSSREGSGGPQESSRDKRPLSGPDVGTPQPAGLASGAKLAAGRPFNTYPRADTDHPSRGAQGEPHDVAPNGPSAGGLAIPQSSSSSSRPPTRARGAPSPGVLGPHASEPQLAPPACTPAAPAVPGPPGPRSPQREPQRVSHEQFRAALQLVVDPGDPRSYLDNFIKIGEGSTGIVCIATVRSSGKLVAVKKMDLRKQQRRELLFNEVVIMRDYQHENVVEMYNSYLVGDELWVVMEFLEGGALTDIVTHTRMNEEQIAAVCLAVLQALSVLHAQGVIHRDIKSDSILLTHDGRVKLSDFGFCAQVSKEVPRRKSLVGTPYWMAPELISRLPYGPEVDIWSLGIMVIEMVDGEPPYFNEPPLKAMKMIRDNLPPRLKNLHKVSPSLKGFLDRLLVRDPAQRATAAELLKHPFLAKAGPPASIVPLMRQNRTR

Chain of Serine/threonine-protein kinase PAK 1 (Q13153 whole entry, the tested form may be a part): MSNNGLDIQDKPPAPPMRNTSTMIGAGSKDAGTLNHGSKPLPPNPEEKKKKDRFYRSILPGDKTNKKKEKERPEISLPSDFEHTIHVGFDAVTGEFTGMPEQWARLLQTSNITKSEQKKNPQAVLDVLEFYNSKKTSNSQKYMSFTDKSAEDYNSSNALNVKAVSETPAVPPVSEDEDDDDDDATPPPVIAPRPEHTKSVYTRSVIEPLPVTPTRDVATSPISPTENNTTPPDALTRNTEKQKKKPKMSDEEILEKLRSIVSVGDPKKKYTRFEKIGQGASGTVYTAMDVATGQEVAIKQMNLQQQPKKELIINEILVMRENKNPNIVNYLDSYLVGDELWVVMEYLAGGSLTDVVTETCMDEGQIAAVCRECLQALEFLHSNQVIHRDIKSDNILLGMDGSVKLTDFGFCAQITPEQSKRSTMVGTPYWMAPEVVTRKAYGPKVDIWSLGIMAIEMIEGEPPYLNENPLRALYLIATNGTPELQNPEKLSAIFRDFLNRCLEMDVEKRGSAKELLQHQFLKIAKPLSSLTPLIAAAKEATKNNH

Ki [4]: 6 nM
IC50 [5]: 160 nM
SMILES: C[C@H](Nc1nccc(Nc2cc(C3CC3)[nH]n2)n1)c1ccc2[nH]cc(Cl)c2n1

fold change (FC) (Hepatocyte): 2.7
Ki [4]: 32 nM
IC50 [5]: 51 nM
Papp A→B [1]: 4.3 ×10⁻⁶ cm/s
fraction unbound [2]: 0.045
solubility kinetic [3]: 133 µM (≈ 47.9 µg/mL)
Cmax [6]: 4.7 µM
Tmax [7]: 34.8 min
Vd [8]: 1.65 L/kg
clearance [9]: 48 mL/min/kg
CL free (Mus musculus): 1067 mL/min/kg
half-life [10]: 37.8 min
bioavailability [11]: 4.8%
Papp A→B (MDR1 (human) [12]): 0.2 ×10⁻⁶ cm/s
Papp B→A (MDR1 (human) [13]): 9.8 ×10⁻⁶ cm/s
efflux ratio (MDR1 (human) [14]): 59
logD [15]: 2.7
SMILES: C[C@H](Nc1nccc(Nc2cc(C3CC3)[nH]n2)n1)c1ccc2[nH]ccc2n1

Ki [4]: 120 nM
Ki [16]: 505 nM
SMILES: c1cc(Nc2cc(C3CC3)[nH]n2)nc(NCc2ccc3[nH]ccc3n2)n1

Papp A→B [1]: 3.7 ×10⁻⁶ cm/s
solubility kinetic [3]: 104 µM (≈ 39.4 µg/mL)
SMILES: C[C@H](Nc1nccc(Nc2cc([C@H]3C[C@@H]3F)[nH]n2)n1)c1ccc2[nH]ccc2n1

fold change (FC) (Hepatocyte): 6.6
SMILES: O=C(O)C[C@H](O)C[C@H](O)/C=C/c1c(C2CC2)nc2ccccc2c1-c1ccc(F)cc1 [PITAVASTATIN]

Ki [4]: 360 nM
SMILES: c1cc(Nc2cc(C3CC3)[nH]n2)nc(NCc2ccc3nccn3c2)n1

The remaining lines, values behind:

SMILES: C[C@H](Nc1nccc(Nc2cc([C@@H]3C[C@H]3F)[nH]n2)n1)c1ccc2[nH]ccc2n1
Papp A→B [1]: 4.2 ×10⁻⁶ cm/s
fraction unbound [2]: 0.047
solubility kinetic [3]: 73 µM (≈ 27.6 µg/mL)

SMILES: C[C@@H](c1ccc2[nH]ccc2n1)N(C)c1nccc(Nc2cc(C3CC3)[nH]n2)n1
Ki [4]: 18 nM
IC50 [5]: 240 nM

SMILES: C[n+]1ccc(-c2ccccc2)cc1
fold change (FC) (Hepatocyte): 4.7

SMILES: CC[C@H](Nc1nccc(Nc2cc(C3CC3)[nH]n2)n1)c1ccc2[nH]ccc2n1
Ki [4]: 23 nM
IC50 [5]: 180 nM

SMILES: C[C@H](Nc1nccc(Nc2cc(C3CC3)[nH]n2)n1)c1cc2cc[nH]c2cn1
IC50 [5]: 68 nM
Papp A→B [1]: 0.9 ×10⁻⁶ cm/s
fraction unbound [2]: 0.039
solubility kinetic [3]: 73 µM (≈ 26.3 µg/mL)

SMILES: C[C@H](Nc1nccc(Nc2cc(C3CC3)[nH]n2)n1)c1nc2cc[nH]c2cc1F
Ki [4]: 4 nM
IC50 [5]: 57 nM
Papp A→B [1]: 8.3 ×10⁻⁶ cm/s
fraction unbound [2]: 0.014
solubility kinetic [3]: 58 µM (≈ 21.9 µg/mL)

SMILES: C[C@@H](Nc1nccc(Nc2cc(C3CC3)[nH]n2)n1)c1ccc2[nH]ccc2n1
IC50 [4]: 685 nM

SMILES: C[C@H](Nc1nccc(Nc2cc(C3CC(F)(F)C3)[nH]n2)n1)c1ccc2[nH]ccc2n1
Ki [4]: 68 nM
IC50 [5]: 250 nM

SMILES: CCCCNC(=O)NS(=O)(=O)c1ccc(C)cc1 [TOLBUTAMIDE]
fold change (FC) (Hepatocyte): 1.4

SMILES: C[C@H](Nc1nccc(Nc2cc(C3CC3)[nH]n2)n1)c1ccc2[nH]ccc2c1
fold change (FC) (Hepatocyte): 1.8
IC50 [5]: 120 nM
Papp A→B [1]: 2 ×10⁻⁶ cm/s
fraction unbound [2]: 0.008
solubility kinetic [3]: 69 µM (≈ 24.8 µg/mL)
Vd [8]: 4.5 L/kg
clearance [9]: 160 mL/min/kg
CL free (Mus musculus): 20000 mL/min/kg
half-life [10]: 19.2 min
Papp A→B (MDR1 (human) [12]): 0.5 ×10⁻⁶ cm/s
Papp B→A (MDR1 (human) [13]): 14.6 ×10⁻⁶ cm/s
efflux ratio (MDR1 (human) [14]): 27.7
logD [15]: 3.7

SMILES: C[C@H](Nc1nccc(Nc2cc(C3CC3)[nH]n2)n1)c1nc2cc[nH]c2cc1Cl
Ki [4]: 119 nM
IC50 [5]: 190 nM

From ChEMBL document CHEMBL3822406, “Synthesis and evaluation of a series of 4-azaindole-containing p21-activated kinase-1 inhibitors” (Bioorg Med Chem Lett, 2016)
